Test results as given in ChEMBL document CHEMBL1909046, “DrugMatrix in vitro pharmacology data”.

How the values were obtained:
[1] = biological target: T1, Alpha-2C adrenergic receptor (Homo sapiens, UniProt P18825); test: DRUGMATRIX: Adrenergic Alpha-2C radioligand binding (ligand: [3H] MK-912); type: cell membranes, Sf9, Membrane
T1 sequence (P18825 whole entry): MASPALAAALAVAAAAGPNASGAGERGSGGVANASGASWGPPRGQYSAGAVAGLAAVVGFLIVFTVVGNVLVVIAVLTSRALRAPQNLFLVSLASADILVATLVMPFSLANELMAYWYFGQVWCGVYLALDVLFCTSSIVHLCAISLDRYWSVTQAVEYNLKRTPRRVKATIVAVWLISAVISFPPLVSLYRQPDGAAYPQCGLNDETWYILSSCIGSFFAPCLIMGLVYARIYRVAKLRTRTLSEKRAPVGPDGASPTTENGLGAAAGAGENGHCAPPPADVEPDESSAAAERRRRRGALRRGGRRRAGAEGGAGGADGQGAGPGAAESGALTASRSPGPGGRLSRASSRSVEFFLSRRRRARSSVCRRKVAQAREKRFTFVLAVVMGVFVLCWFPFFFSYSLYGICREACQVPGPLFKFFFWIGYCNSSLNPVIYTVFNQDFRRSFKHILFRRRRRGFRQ

[2] = DRUGMATRIX: beta-Lactamase enzyme inhibition (substrate: Nitrocefin); parameters: species or system Bacillus cereus; settings: Not Active = under 50% inhibition at 10 µM
[3] = DRUGMATRIX: Calcium Channel Type L, Benzothiazepine radioligand binding (ligand: [3H] Diltiazem); type: cell membranes, Rattus norvegicus, Wistar, Brain, Membrane; settings: Not Active = under 50% inhibition at 10 µM
[4] = biological target: T2, Cholecystokinin receptor type A (Homo sapiens, UniProt P32238); type: cell membranes, Membrane; settings: 1321-n1; also: in other assays of this panel Not Active means under 50% inhibition at 10 µM
T2 sequence (P32238 whole entry): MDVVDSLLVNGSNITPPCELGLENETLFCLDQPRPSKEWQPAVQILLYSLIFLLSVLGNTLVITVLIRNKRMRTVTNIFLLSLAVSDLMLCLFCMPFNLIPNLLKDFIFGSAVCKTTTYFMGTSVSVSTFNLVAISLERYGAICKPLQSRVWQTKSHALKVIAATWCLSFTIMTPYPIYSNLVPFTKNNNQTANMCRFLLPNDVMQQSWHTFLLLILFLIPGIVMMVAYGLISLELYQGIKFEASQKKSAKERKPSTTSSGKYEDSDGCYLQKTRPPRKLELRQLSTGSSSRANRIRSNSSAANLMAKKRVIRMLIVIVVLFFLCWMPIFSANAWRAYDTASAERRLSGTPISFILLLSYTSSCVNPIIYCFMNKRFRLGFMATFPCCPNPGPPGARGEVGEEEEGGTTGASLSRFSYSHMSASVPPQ

Glycine receptor = Glycine receptor (Rattus norvegicus, UniProt P22771+P24524+P07727+P20781); type: cell membranes, Wistar, Spinal cord, Membrane; also: in other assays of this panel Not Active means under 50% inhibition at 10 µM
Melanocortin receptor 3 = Melanocortin receptor 3 (Homo sapiens, UniProt P41968); type: cell membranes, Membrane; settings: hek293; also: in other assays of this panel Not Active means under 50% inhibition at 10 µM
[5] = biological target: Platelet-activating factor receptor (Homo sapiens, UniProt P25105); type: tissue-based; also: in other assays of this panel Not Active means under 50% inhibition at 10 µM
Platelet-activating factor receptor, sequence (P25105 whole entry): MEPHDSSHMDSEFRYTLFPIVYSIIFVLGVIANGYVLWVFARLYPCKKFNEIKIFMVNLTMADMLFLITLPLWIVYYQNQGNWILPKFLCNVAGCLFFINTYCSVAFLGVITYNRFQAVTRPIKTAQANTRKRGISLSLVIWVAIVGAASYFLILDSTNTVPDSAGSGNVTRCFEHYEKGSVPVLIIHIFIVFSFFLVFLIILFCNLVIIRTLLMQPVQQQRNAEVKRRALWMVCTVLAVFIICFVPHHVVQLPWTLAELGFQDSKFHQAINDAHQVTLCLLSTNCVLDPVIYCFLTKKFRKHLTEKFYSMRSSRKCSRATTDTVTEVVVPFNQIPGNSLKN

Melanocortin receptor 3, sequence (P41968 whole entry): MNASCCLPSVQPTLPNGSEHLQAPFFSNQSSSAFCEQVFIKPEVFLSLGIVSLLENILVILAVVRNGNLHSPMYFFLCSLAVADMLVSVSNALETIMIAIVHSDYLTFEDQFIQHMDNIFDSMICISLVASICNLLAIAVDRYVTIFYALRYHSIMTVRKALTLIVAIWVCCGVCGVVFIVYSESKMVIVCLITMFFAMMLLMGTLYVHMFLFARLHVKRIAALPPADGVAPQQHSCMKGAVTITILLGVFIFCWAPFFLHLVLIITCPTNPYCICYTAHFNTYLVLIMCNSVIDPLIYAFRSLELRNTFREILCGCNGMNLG

Row | Compound | IC50 ([1]; sf9) | IC50 [2] | Ki [2] | IC50 [3] | Ki [3] | IC50 [4] | IC50 (Glycine receptor) | IC50 (Melanocortin receptor 3) | IC50 [5] | IC50 ([1]; read-out: IC50) [nM] | Ki ([1]; read-out: Ki) [nM] | Ki ([1]; sf9) | Ki [4] | Ki (Glycine receptor) | Ki (Melanocortin receptor 3) | Ki [5] | IC50 (Melanocortin receptor 3; read-out: IC50) [nM] | Ki (Melanocortin receptor 3; read-out: Ki) [nM]
1 | CCc1ccc(CCOc2ccc(CC3SC(=O)NC3=O)cc2)nc1 (stereo not drawn) [PIOGLITAZONE] | Not Active | Not Active | Not Active | Not Active | Not Active | Not Active | Not Active | Not Active | Not Active | – | – | – | – | – | – | – | – | –
2 | CC[C@H]1[C@@H]2C[C@H]3[C@@H]4N(C)c5ccccc5[C@]45C[C@@H]([C@@H]2[C@H]5O)N3[C@@H]1O [AJMALINE] | Not Active | Not Active | Not Active | Not Active | Not Active | Not Active | Not Active | Not Active | Not Active | – | – | – | – | – | – | – | – | –
3 | CNC1=Nc2ccc(Cl)cc2C(c2ccccc2)=[N+]([O-])C1 [CHLORDIAZEPOXIDE] | Not Active | Not Active | Not Active | Not Active | Not Active | Not Active | Not Active | Not Active | Not Active | – | – | – | – | – | – | – | – | –
4 | C[C@@H]1O[C@@H](O[C@H]2C[C@@H](O)[C@]3(CO)[C@H]4[C@H](O)C[C@]5(C)[C@@H](C6=CC(=O)OC6)CC[C@]5(O)[C@@H]4CC[C@]3(O)C2)[C@H](O)[C@H](O)[C@H]1O [OUABAIN] | Not Active | Not Active | Not Active | Not Active | Not Active | Not Active | Not Active | Not Active | Not Active | – | – | – | – | – | – | – | – | –
5 | Cc1cccc(C)c1NC(=O)C1CCCCN1C (stereo not drawn) [MEPIVACAINE] | Not Active | Not Active | Not Active | Not Active | Not Active | Not Active | Not Active | Not Active | Not Active | – | – | – | – | – | – | – | – | –
6 | CC1=NN(c2ccccc2)C(=O)C1 [EDARAVONE] | Not Active | Not Active | Not Active | Not Active | Not Active | Not Active | Not Active | Not Active | Not Active | – | – | – | – | – | – | – | – | –
7 | CC(C)C[C@H]1C(=O)N2CCC[C@H]2[C@]2(O)O[C@](NC(=O)[C@@H]3C=C4c5cccc6[nH]cc(c56)C[C@H]4N(C)C3)(C(C)C)C(=O)N12 [ERGOCRYPTINE] | – | Not Active | Not Active | Not Active | Not Active | Not Active | Not Active | Not Active | Not Active | 38 | 5.48 | – | – | – | – | – | – | –
8 | Cc1cc(O)cc(C)c1Cl [CHLOROXYLENOL] | Not Active | Not Active | Not Active | Not Active | Not Active | Not Active | Not Active | Not Active | Not Active | – | – | – | – | – | – | – | – | –
9 | CCOC(=O)c1ncn2c1CN(C)C(=O)c1cc(F)ccc1-2 [FLUMAZENIL] | Not Active | Not Active | Not Active | Not Active | Not Active | Not Active | Not Active | Not Active | Not Active | – | – | – | – | – | – | – | – | –
10 | COBALTOUS CHLORIDE | Not Active | Not Active | Not Active | Not Active | Not Active | Not Active | Not Active | Not Active | Not Active | – | – | Not Active | Not Active | Not Active | Not Active | Not Active | – | –
11 | COc1ccc2c(c1OC)C(=O)O[C@@H]2[C@H]1c2c(cc3c(c2OC)OCO3)CCN1C [NOSCAPINE] | Not Active | Not Active | Not Active | Not Active | Not Active | Not Active | Not Active | Not Active | Not Active | – | – | – | – | – | – | – | – | –
12 | COLISTIN | Not Active | Not Active | Not Active | Not Active | Not Active | Not Active | Not Active | – | Not Active | – | – | Not Active | Not Active | Not Active | – | Not Active | 193 | 168
13 | CCN(C(C)=O)c1cccc(-c2ccnc3c(C#N)cnn23)c1 [ZALEPLON] | Not Active | Not Active | Not Active | Not Active | Not Active | Not Active | Not Active | Not Active | Not Active | – | – | – | – | – | – | – | – | –
